Where two headings read alike, the source gives them in different places.
Experiments:
[1] = system: ATP-mediated elevation of cytosolic calcium in cells from Alzheimer's disease patients; details: for peak elevation of [Ca2+]c: ATP 30 μM, percentage of baseline
Experimental: The changes of cytosolic Ca^2+ concentration ([Ca^2+ ]c) of iPSCs after ATP exposure were measured using jellyfish photoprotein aequorin-based probe. 7.5-1.2×10^4 cells were plated on 12 mm coverslips in 24 well plate, grow to 50-60% confluence then transfected with the cyt-Aeq plasmid using Lipofectamine 3000 Transfection Reagent (Thermo Fisher Scientific) according to the manufacturer's instruction. The next day, the transfected cells were incubated with 5 μM coelenterazine for 1 h in modified Krebs-Ringer buffer (in mM: 140 NaCl, 2.8 KCl, 2 MgCl2, 10 Hepes, 11 glucoses, pH 7.4) supplemented with 1 mM CaCl2 and then were transferred to the perfusion chamber. All aequorin measurements were carried out in KRB, anesthetics were added to the same medium as specified. The experiments were performed in a custom-built aequorin recording system. For extracellular Ca^2+ free experiments, Ca^2+ free buffer was used (KRB without Ca^2+ with 5 mM EGTA). The experiments were terminated by lysing the cells with 100 μM digitonin in a hypotonic Ca^2+-rich solution (10 mM CaCl2 in H2O), thus discharging the remaining aequorin pool. The light signal was collected and calibrated into [Ca^2+ ]c values by an algorithm based on the Ca^2+ response curve of aequorin at physiological conditions of pH, [Mg^2+], and ionic strength, as previously described by Filadi R, et al., PNAS 2015; 201504880; Bonora M, et al., Nat Protoc 2013; 8:2105, each of which is incorporated by reference in its entirety.

[2] = system: LC3II in iPSCs from AD patients
Experimental: Western blotting was performed according to the standard procedure. Total protein extracts from iPSCs cells were obtained by lysing the cells in ice-cold lysis buffer (50 mM Tris-HCl, 150 mM NaCl and 1% Triton X-100) in the presence of a cocktail of protease inhibitors, as described by Hollomon, M G, et al., BMC Cancer 2013; 13:500, which is incorporated by reference in its entirety. After centrifugation, the supernatant was collected, and the total protein was quantified using a bicinchoninic acid (BCA) protein assay kit (Thermo Scientific, Rockford, Ill.). Equal amounts of protein for each lane were loaded and separated on 15% sodium dodecyl sulfate-polyacrylamide gel electrophoresis (SDSPAGE).
After electrophoresis, proteins were transferred onto a polyvinylidene fluoride (PVDF) membrane. The membranes were blocked with 5% fat-free milk dissolved in PBS-T for 1 h at room temperature, and then stained with primary antibody at 4° C. overnight. After the wash with PBS-T, the membranes were incubated with secondary antibodies (HRP conjugated anti-rabbit and anti-mouse IgG) at 1:1,000 dilutions, and β-actin served as a loading control. Signals were detected with an enhanced chemiluminescence detection system (Millipore, Billerica, Mass.) and quantified by scanning densitometry.

[3] = system: iPSCs derived immature neurons
[4] = system: induced pluripotent stem cells (iPSCs) from Alzheimer's disease (AD) patients; details: 24 h; for increase of MTT (cell viability): dantrolene 30 μM
Experimental: (§1) Human control (AG02261) and sporadic Alzheimer's disease (AG11414) iPSCs were obtained from John A. Kessler's lab. Familial Alzheimer's disease (GM24675) iPSCs were purchased from Coriell Institute. Each type of iPSC was generated from skin fibroblasts of one heathy human subject or one patient diagnosed of either SAD or FAD. The human pluripotent stem cells were maintained on Matrigel coated plates (BD Biosciences) in mTeSR™1 medium (Catalog #05850, Stem cell Technologies) and were cultured in a 5% CO2 humidified atmosphere at 37° C. The culture medium was changed every day.
The cell viability on different wells in 96-well plates was determined using the MTT (3-(4,5-dimethylthiazol-2-yl)-2,5-diphenyltetrazolium bromide, Sigma-Aldrich, St. Louis, Mo.) reduction assay at 24 h as previously described by Qiao H, et al., Anesthesiology 2017; 127:490; Ren G, et al., Sci Rep 2017; 7:12378, each of which is incorporated by reference in its entirety. After being washed with PBS, the samples were incubated with fresh culture medium containing MTT (0.5 mg/mL in the medium) at 37° C. for 4 h in the dark. The medium was then removed and formazan was solubilized with dimethyl sulfoxide (DMSO). The absorbance was measured at 540 nm with plate reader (Synergy™ H1 microplate reader, BioTek, Winooski, Vt.).

[5] = system: induced pluripotent stem cells (iPSCs) from Alzheimer's disease (AD) patients; details: FAD cells; vs DMSO vehicle
Experimental: as §1

iPSC from AD patients = details: compared with DMSO
Experimental: As described previously by Ren G, et al., Sci Rep 2017; 7:12378, which is incorporated by reference in its entirety, LysoTracker® Red DND-99 (Molecular Probe, Eugene, Oreg.) probe stock solution was diluted to a working concentration of 50 nM in HBSS+. IPSCs cells were plated on coverslips coated with Matrigel (BD Biosciences) in mTeSR™1 (Catalog #05850). After being washed three times with HBSS+, the cells were loaded with pre-warmed (37° C.) probe containing HBSS+ and incubated for 1 h at 37° C. Fresh medium was added to replace the labeling solution. The cells were observed by a fluorescent microscope fitted with the correct filter set for the probe used, to determine if the cells were sufficiently fluorescent. LysoTracker Red used an […].

[6] = system: cortical neurons generated from SAD and FAD patient iPSCs; details: dantrolene for 3 days
[7] = system: cortical neurons generated from SAD and FAD patient iPSCs; details: FAD cells; dantrolene treatment
[8] = system: NMDA mediated elevation of cytosolic Ca2+ concentrations in iPSC from AD patients
[9] = system: vacuolar-type H+-ATPase (V-ATPase) in lysosomes (LAMP-2) of iPSC; details: dantrolene 30 μM
[10] = intranasal 5 mg/kg, 3 times/wk, 3 weeks; vs vehicle
[11] = intranasal 5 mg/kg, 3 times/wk, 4 months; vs vehicle
5XFAD mice = details: for hippocampus-dependent memory (CFC) vs untreated 5XFAD controls / hippocampus-independent memory (FC-cued) vs controls: 6 months of age
[12] = system: wild type (WT) and 5XFAD (TG) mice; details: all groups
[13] = mouse, in vivo
[14] = all groups, 10 months of age
[15] = 11 months of age
[16] = not given; remark: listed apart in the source
[17] = system: amyloid plaques in hippocampus and cortex of 5XFAD mice; details: IN-DAN, SQ-DAN, ETG and LTG
[18] = system: glutamate mediated elevation of mitochondrial calcium concentration in iPSC-derived neurons; details: FAD neurons; glutamate 20 mM; dantrolene 20 μM pretreatment 1 hour

Nc1ncnc2c1ncn2[C@@H]1O[C@H](COP(=O)(O)OP(=O)(O)OP(=O)(O)O)[C@@H](O)[C@H]1O [ATP, adenosine triphosphate]
peak elevation of [Ca2+]c ([1]; FAD cells): 128.3%
peak elevation of [Ca2+]c ([1]; SAD cells): 140.4%
peak elevation of [Ca2+]c ([1]; control cells): 84.1%

bafilomycin
LC3II level on co-treatment with dantrolene ([2]; SAD and FAD iPSCs, vs dantrolene alone): further elevated

glutamate
cytosolic ATP production ([3]; glutamate 20-30 mM, 24 hours): dose dependently decreased

O=C1CN(/N=C/c2ccc(-c3ccc([N+](=O)[O-])cc3)o2)C(O)=N1 [dantrolene]
increase of MTT (cell viability) ([4]; iPSC FAD): 67.6%
increase of MTT (cell viability) ([4]; iPSC SAD): 15.1%
cell viability (MTT) ([4]; iPSCs from healthy human subjects (CON), 30 μM): did not affect
cell proliferation, percentage of BrdU-positive cells [5]: greater proliferation
lysotracker-positive acidic vesicles (iPSC from AD patients; FAD cells): significantly increased
lysotracker-positive acidic vesicles (iPSC from AD patients; SAD cells): significantly increased
mean number of dendrite intersections at around 150 μM from soma ([6]; FAD cells): significantly greater
mean number of dendrite intersections at around 150 μM from soma ([6]; SAD cells): significantly greater
PSD95 density [7]: significantly greater
synapsin-1 density [7]: significantly increased
NMDA-mediated elevation of [Ca2+]c and AUC [8]: ameliorated
integrated cytosolic Ca2+ (AUC), ATP+Ca2++DAN vs ATP+Ca2+ ([1]; FAD cells, dantrolene 30 μM pretreatment, 1 mM extracellular Ca2+): significantly reduced
ATP-mediated peak or overall elevation of [Ca2+]c ([1]; absence of extracellular Ca2+ influx, SAD/FAD cells, not statistically significant): only trended to inhibit
integrated cytosolic Ca2+ (AUC), ATP+Ca2++DAN vs ATP+Ca2+ ([1]; control cells, dantrolene 30 μM pretreatment, 1 mM extracellular Ca2+): significantly reduced
peak cytosolic [Ca2+]c, ATP+Ca2++DAN ([1]; dantrolene 30 μM pretreatment, 1 mM extracellular Ca2+, between groups): no significant differences
V-ATPase in lysosomes (LAMP-2) compared with controls ([9]; FAD cells): no longer significantly reduced
V-ATPase in lysosomes (LAMP-2) compared with controls ([9]; SAD cells): remained significantly lower
increase of LC3II level ([2]; FAD iPSCs, P<0.001): 49.4%
increase of LC3II level ([2]; SAD iPSCs, P=0.3483): 47.3%
olfaction, time to retrieve buried food [10]: No significant differences
motor function, time spent on the rotarod [11]: No significant differences
hippocampus-dependent memory (CFC) vs untreated 5XFAD controls (5XFAD mice; IN-DAN, ETG): significantly greater memory
hippocampus-independent memory (FC-cued) vs controls (5XFAD mice; IN-DAN, ETG): significantly improved
hippocampus-dependent memory (CFC) vs 5XFAD controls (5XFAD mice; IN-DAN, ETG, 11 months of age): significantly greater
hippocampus-independent memory (FC-cued) vs 5XFAD CON (5XFAD mice; IN-DAN, ETG, 11 months of age): significantly better
hippocampus-independent memory (FC-cued) vs 5XFAD CON (5XFAD mice; IN-DAN, LTG, 11 months): No significant memory improvement
hippocampus-dependent memory (CFC) vs 5XFAD CON (5XFAD mice; IN-DAN, LTG, 11 months of age): significantly improved
hippocampus-dependent memory (CFC) vs untreated 5XFAD controls (5XFAD mice; SQ-DAN, ETG): significantly greater memory
hippocampus-independent memory (FC-cued) vs controls (5XFAD mice; SQ-DAN, ETG): significantly improved
hippocampus-independent memory (FC-cued) vs 5XFAD CON (5XFAD mice; SQ-DAN, ETG, 11 months of age): trended to improve memory but were not statistically different
hippocampus-independent memory (FC-cued) vs 5XFAD CON (5XFAD mice; SQ-DAN, LTG, 11 months): No significant memory improvement
hippocampus-dependent memory (CFC) vs 5XFAD CON (5XFAD mice; SQ-DAN, LTG, 11 months of age): trended to be better but was not statistically significant
number of times the animals crossed the platform ([12]; 10 months): no significant differences
percent time in the target quadrant (probe trial) vs controls ([12]; 10 months): no significant differences
escape latency in place trials vs controls ([12]; 10 months of age): no significant differences
motor function (rotarod) vs control group [13]: No significant differences
olfaction (buried food test) ([14]; 5XFAD): No significant differences
olfaction (buried food test) ([14]; WT): No significant differences
plasma alanine aminotransferase (ALT) activity vs control group (5XFAD, 6-month intranasal treatment in LTG): significantly increased
plasma alanine aminotransferase (ALT) activity vs control group (5XFAD, other treatment groups): No significant differences
plasma alanine aminotransferase (ALT) activity vs control group (WT, 6-month subcutaneous treatment in LTG): significantly increased
plasma alanine aminotransferase (ALT) activity vs control group (WT, other treatment group): No significant difference
hepatic pathology (H&E stained sections) ([15]; 5XFAD ETG mice): No gross differences
hepatic pathology (H&E stained sections) ([15]; WT ETG mice): No gross differences
bodyweight growth curve ([16]; 5XFAD mice, ETG groups): No significant differences
body weight ([16]; WT, 12 months of age): No significant difference
number of amyloid plaques per area (mm^2) in hippocampus and cortex [17]: No significant differences
percent area of the hippocampus and cortex occupied by plaques ([17]; vs control): No significant differences
glutamate-induced reduction of cytosolic ATP concentration ([3]; neurons derived from AD patients): significantly inhibited
glutamate-induced overall exposure (AUC) of mitochondrial calcium concentration [18]: abolished
glutamate-induced peak elevation of mitochondrial calcium concentration [18]: abolished

Reference: US20220354827A1 (priority 2019, published 2022)
